In patent publication US12251366B1, “Sulforaphane-cysteine for wound healing in diabetic subjects” (KUWAIT UNIVERSITY, priority 2024, dated 2025):

System: TNF-α
Experiment: Cytokine ELISA, LPS-stimulated peritoneal macrophages (TNF-α)
Assay type: cell-based, mouse
Conditions: LPS-stimulated macrophages, mouse model of type 2 diabetes
Source text: This was exemplified in the current study by the ability of SFN-CYS to inhibit lipopolysaccharide (LPS)-induced peritoneal macrophages and bone marrow-derived macrophages to produce tumor necrosis factor-α (TNF-α) and interlukin-6 (IL-6). TNF-α and IL-6 are two of the major inflammatory mediators that contribute to the pathogenesis of low-grade inflammation; a phenomenon which is commonly associated with the diabetic state. […] Pre-treatment with SFN-Cys inhibited the expression of LPS-induced TNF-α and IL-6 protein at a therapeutic dose of 1.5 μM (FIGS. 1A and 1B).
Thioglycollate-elicited mouse peritoneal macrophages were prepared from C57BL (8-10 weeks old) and cultured in RPMI 1640 with 10% (v/v) FCS Bone marrow-derived macrophages were generated in RPMI medium containing M-CSF (10 ng/mL) according to previously published procedure. For cytokine ELISA assay, cells were seeded at 5×10^5 in 12-well plates, whereas for mRNA expression, the cells were seeded at […]. LPS and used at a dose of 100 ng/mL. Similarly. SFN-Cys was used at a concentration of 1.5 umol/L.
For cytokine ELISA, supernatants from cultured macrophages were collected in response to treatment with SFN and SFN-Cys for 6 h. The total TNF-α and TL-6 were measured by enzyme-linked immunosorbent assay (ELISA) using kits (R&D system, USA) according to the manufacturer's protocols.

## C[S+]([O-])CCCCN=C=S (stereo not shown) [SFN, Sulforaphane]
  anti-inflammatory activity (overall, SFN-Cys compared with SFN): exhibited anti-inflammatory and antioxidant activities
